# From US4599331A, “Etianic acids as antiangiogenics” (Syntex (U.S.A.) Inc., priority 1984, dated 1986)
# What was measured:
# [1] = system: tyrosine aminotransferase (TAT); experiment: tyrosine aminotransferase (TAT) induction in HTC cells; format: cell-based, rat; conditions: Rattus norvegicus, Table 1, 24 or 48 hours, from 10^-6 M down, relative to dexamethasone = 1, read-out: Efficacy (DEX = 1) TAT
# Protocol: In this example, tyrosine aminotransferase (TAT) activity was determined by a spectrophotometric assay. This enzyme catalyzes the conversion of tyrosine to p-hydroxyphenylpyruvate. This example is a standard in vitro test for glucocorticoid activity.
# Addition of base caused the conversion of p-hydroxyphenylpyruvate to p-hydroxybenzaldehyde, which was quantitatively measured by absorbance at 331 nm. HTC cells, the target cells for the compound tested were grown in DMEM+10% FCS. Subconfluent cell cultures were incubated with test compounds in 6 well Costar dishes for 24 or 48 hours. The cells were incubated in either serum-free DMEM or DMEM containing 10% FCS previously filtered over activated charcoal. The cells were harvested in PBS using a rubber policeman, then washed once in PBS by centrifugation and resuspended in a 0.3 ml lysis buffer of 10 mM Tris, 10 mM EDTA and 0.25M sucrose at pH 7.4. The cells were then lysed by three cycles of freeze-thawing using dry ice and a 37° C. waterbath and the cells debris was pelleted by centrifugation for 2 min at 12,000 9 in an Eppendorf centrifuge.
# The supernatant was used for a protein determination using either E+K stain or BioRad protein assay kit and TAT activity. 0.1 ml TAT buffer having 50 mM KH2 PO4, 1 mM EDTA, 0.1 mM Dithiothereitol (DTT), and 5 mg/ml BSA at pH 7.6 and 0.1 ml cell extract were mixed in glass tubes. A prewarmed mixture of 200 parts of a 2.3 mg/ml tyrosine solution in 0.05M phosphate buffer, 100 parts 0.125M KH2 PO4, 10 parts of a 0.92 mg/ml and ketoglutarate solution and 1 part of a 0.04 mg/ml pyridoxalphosphate solution had been previously made up. […] of the prewarmed mixture was added to each tube and allowed to react at 37° C. for 15 min. The addition of 0.1 ml 7N […] stopped the reaction. The mixture was then immediately vortexed.
# Aldehyde formation was allowed to proceed at 37° C. for 30 min. The amound of aldehyde formed was determined by UV spectroscopic means. Absorbance was read at 331 nm using a solution composed of 0.1 ml TAT buffer, 0.1 ml lysis buffer, 0.7 ml reaction mixture and 0.1 ml 7N KOH as a blank. Optical Density values are linearily corrected for protein content.
# As the absolute amount of enzyme induction varies between experiments, results are expressed as percent of the maximal induction obtained with dexamethasone, which was run as a standard in each assay.
# In this series, compounds were assayed from 10^-6 M down. Results are expressed in the TAT column of tables 1, and 2 as the induction ability of a compound as compared to dexamethasone; a compound may either be a partial inducer or a superinducer.
# [2] = system: alkaline phosphatase (APb); experiment: alkaline phosphatase (APb) induction in LE II cells; format: cell-based, mouse; conditions: Mus musculus, Table 1, about 65 hours, relative to dexamethasone = 1, read-out: Efficacy (DEX = 1) Alk P
# Protocol: This is another standard test for glucocorticoid activity.
# LE II cells were grown in DMEM plus 10% FCS, at 37° C., in a 10% carbon dioxide atmosphere. Confluent monolayers of cells were trypsinized and seeded at a 1:15 dilution into 6-well Costar cluster dishes. […] In all experiments, DEX, at concentrations of 10^-9 to 10^-6 M, was added to some of the wells as a positive control.
# Cell monolayers were washed with PBS and harvested by scraping with a rubber policeman into 400 μl of a buffer of 20 mM Tris-HCl at pH 7.4; 2 mM MgCl2; and 150 mM NaCl together with 1% Triton X-100. Samples were transferred into 1.5 ml Eppendorf centrifuge tubes and placed on ice. The tubes were first vortexed and then centrifuged in the Eppendorf minicentrifuge for 2 minutes. Duplicate 100 μl aliquots of supernatant were placed into 12×75 mm glass test tubes for determination of APb activity, while the rest was saved for protein determination. […] The tubes were incubated in a 37° C. water bath for between 20 to 50 minutes, depending on the activity of the samples. The APb reaction was terminated by the addition of 0.5 ml of […]. The tubes were mixed and 200 μl portions from each tube were transferred in triplicate to a 96 well microtiter plate. The OD410 nm of each well was then determined using a Dynatech plate reader.
# […] of the cell supernatant were transferred to 96 well microtiter plates for protein determination by a modification of the Lowry method. […] The plates were shaken for 1 hour and then the OD630 was determined using a Dynatech plate reader. The protein content for each sample was calculated by comparing the average OD630 reading with those obtained for a bovine serum albumin standard curve.
# The alkaline phosphatase activity of in each sample was expressed as μmoles product formed per minute per mg protein in the Alk P column of Tables 1 and 2. Results are expressed as the induction ability of a compound as compared to dexamethasone.
Structure (SMILES),Emax [1] [%],Emax [2] [%]
CCC(=O)O[C@]1(C(=O)OC)[C@@H](C)C[C@H]2[C@@H]3CCC4=CC(=O)C=C[C@]4(C)[C@@]3(F)[C@@H](O)C[C@@]21C [compound 1],100,100
CCC(=O)O[C@]1(C(=O)OC)[C@@H](C)C[C@H]2[C@@H]3CC(F)C4=C(F)C(=O)C=C[C@]4(C)[C@@]3(F)[C@@H](O)C[C@@]21C (stereo partly drawn) [compound 3],150,100
CCCC(=O)O[C@]1(C(=O)OC)[C@@H](C)C[C@H]2[C@@H]3CC(F)C4=CC(=O)C=C[C@]4(C)[C@@]3(F)[C@@H](O)C[C@@]21C (stereo partly drawn) [compound 4],100,170
CCC(=O)O[C@]1(C(=O)OC)[C@H](C)C[C@H]2[C@@H]3CC(F)C4=CC(=O)C=C[C@]4(C)[C@@]3(F)[C@@H](O)C[C@@]21C (stereo partly drawn) [compound 7],200,110
CCC(=O)O[C@]1(C(=O)OC)[C@H](C)C[C@H]2[C@@H]3CC(F)C4=C(F)C(=O)C=C[C@]4(C)[C@@]3(F)[C@@H](O)C[C@@]21C (stereo partly drawn) [compound 8],100,120
CCCC(=O)O[C@]1(C(=O)OC)[C@H](C)C[C@H]2[C@@H]3CC(F)C4=CC(=O)C=C[C@]4(C)[C@@]3(F)[C@@H](O)C[C@@]21C (stereo partly drawn) [compound 9],90,90
